Columns and labels:
MAGL [1] = molecular target: T1, MAGL (Homo sapiens, UniProt Q99685); test: 2-AG assay (MAGL inhibitory activity, hydrolysis of 2-arachidonoylglycerol followed by mass spectrometry); assay type: biochemical; conditions: 50 pM MAGL, 8 μM 2-arachidonoylglycerol, 15 min pre-incubation, 30 min at RT
T1 sequence (Q99685 1-303): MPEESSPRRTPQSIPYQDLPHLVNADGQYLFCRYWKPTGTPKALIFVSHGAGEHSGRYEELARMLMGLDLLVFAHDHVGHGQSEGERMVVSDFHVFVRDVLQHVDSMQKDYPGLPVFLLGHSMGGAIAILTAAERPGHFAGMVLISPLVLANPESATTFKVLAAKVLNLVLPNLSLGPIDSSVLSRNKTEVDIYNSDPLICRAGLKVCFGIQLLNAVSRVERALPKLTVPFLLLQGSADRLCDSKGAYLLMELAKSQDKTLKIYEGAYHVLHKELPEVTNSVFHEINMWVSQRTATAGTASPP
Method: Compounds were profiled for MAGL inhibitory activity by determining the enzymatic activity by following the hydrolysis of the natural substrate, 2-arachidonoylglycerol, resulting in arachidonic acid, which can be followed by mass spectrometry. This assay is hereinafter abbreviated “2-AG assay”.
A C18 SPE cartridge (G9205A) was used in an acetonitrile/water liquid setup. […] The activity of the compounds was calculated based on the ratio of intensities [arachidonic acid/d8-arachidonic acid].

MAGL [2] = molecular target: T2, MAGL (Mus musculus, UniProt O35678); test: In vitro autoradiography of 3H ligands on sagittal mouse brain sections (MAGL WT and ko); conditions: 1 nM radioligand, 30 min; for binding on wt tissue samples (autoradiography): MAGL WT mouse brain sections; for binding on MAGL ko tissue sections (autoradiography; selectivity, non-specific binding): MAGL ko mouse brain sections
T2 sequence (O35678 1-303): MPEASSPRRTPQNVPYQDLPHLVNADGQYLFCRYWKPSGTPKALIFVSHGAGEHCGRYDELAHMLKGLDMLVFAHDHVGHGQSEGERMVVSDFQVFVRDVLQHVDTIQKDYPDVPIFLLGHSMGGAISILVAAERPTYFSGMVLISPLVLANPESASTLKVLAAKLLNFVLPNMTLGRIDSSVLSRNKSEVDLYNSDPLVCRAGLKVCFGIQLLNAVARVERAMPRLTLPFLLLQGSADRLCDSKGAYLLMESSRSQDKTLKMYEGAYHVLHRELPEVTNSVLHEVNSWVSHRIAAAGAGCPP
Method: Receptor autoradiography was performed on sagittal sections of fresh-frozen brains from MAGL WT and ko mice (C57BL6/6NTac-Mgllem4993_02Tac). Tissue sections (10 μm) from brain specimens were cut in a cryostat (Leica CM3050) at −17° C. chamber temperature and −15° C. object temperature and thaw-mounted on microscope glass slides (HistoBond, Paul Marienfeld GmbH, Lauda-Königshofen, Germany). Brain sections were incubated for 30 min in 50 mM Tris-HCl buffer pH 7.4 with 0.1% BSA at RT containing 1 nM of the radioligand. Sections were rinsed three times for 10 min in ice-cold 50 mM Tris-HCl buffer, followed by three dips into ice-cold H2O and air-dried at 4° C. before being exposed to tritium-sensitive imaging plates (BAS-IP TR2025, Fujifilm, Dielsdorf, Switzerland) with a tritium microscale for 5 days at RT. The imaging plates were scanned with a high-resolution phosphor imager (Fuji BAS-5000, Bucher Biotec AG, Basel, Switzerland) and the binding intensity for selected brain areas was quantified using an MCID M2 image analysis software (version 7; InterFocus Imaging GmbH, Mering, Germany).

MAGL [3] = molecular target: T3, MAGL (Rattus norvegicus, UniProt Q8R431); test: In vivo binding to MAGL assessed by ex vivo autoradiography in CD(SD) rats; parameters: 10 μm sagittal brain sections from Wistar rats were used in in vitro autoradiography; from tissue; host or cells: rat brain (Wistar sections; CD(SD) rats dosed in vivo); conditions: male CD(SD) rats, 1 mCi/kg i.v., 90 min post injection; blocked by a high dose of a MAGL inhibitor
T3 sequence (Q8R431 1-303): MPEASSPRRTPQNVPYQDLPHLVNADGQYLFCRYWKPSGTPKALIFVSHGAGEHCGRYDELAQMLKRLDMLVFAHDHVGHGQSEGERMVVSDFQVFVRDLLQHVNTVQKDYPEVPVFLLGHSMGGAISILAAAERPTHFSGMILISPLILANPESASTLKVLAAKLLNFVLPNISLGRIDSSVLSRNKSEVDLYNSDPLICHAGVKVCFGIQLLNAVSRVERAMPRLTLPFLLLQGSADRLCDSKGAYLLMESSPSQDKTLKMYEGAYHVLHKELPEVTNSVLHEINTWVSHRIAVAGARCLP
Method: Rats were sacrificed by decapitation 90 min after administration of the radioligand. Brains were rapidly removed and divided in two halves along their sagittal axis. The brain halves were frozen in dry ice for following cryosectioning. The hemisphere was placed in a cryostat and sagittal sections (10 μm thickness) were cut. Brain sections were mounted on Histobond glass slides (Marienfeld Laboratories Glassware, Germany), dried at room temperature and exposed, together with tritium microscales, to tritium-sensitive imaging plates (BAS-TR2025) for five days. The imaging plates were scanned in a Fujifilm BAS-5000 high resolution phosphor imager and the amount of [^3H]2 bound to the brain regions of interest was quantified with an MCID M2 image analysis system (Imaging Research Inc., St. Catherines, Ontario, Canada).

MAGL [4] = molecular target: T3, MAGL; test: In vitro autoradiography of 11C tracers on sagittal brain sections from Wistar rats
Method: 10 μm sagittal brain sections from Wistar rats were used in in vitro autoradiography. On the day of experimentation, the slices were thawed on ice (10 min) and pre-conditioned in an aqueous buffer containing 30 mM 4-(2-hydroxyethyl)-1-piperazineethanesulfonic acid (HEPES), 1.2 mM MgCl2, 110 mM NaCl, 5 mM KCl, 2.5 mM CaCl2, and 1% fatty-acid-free bovine serum albumin (pH 7.4, 0° C.) for 10 min. The tissue samples were dried in air and subsequently incubated with radiotracer or a mixture of radiotracer and a cold MAGL inhibitor as a blocker at ambient temperature for 30 min. Upon completion of the incubation time, the slices were washed once for 3 min in the aqueous buffer described above, and twice for 2 min in the aqueous buffer described without 1% fatty-acid-free bovine serum albumin. After two quick dips in distilled water, the sections were dried in the air and exposed to a phosphor image plate for 1 h. The films were scanned by a BAS5000 reader (Fuji), and the data were analyzed using AIDA software, version 4.50.010 (Raytest Isotopenmessgeräte GmbH). For [^11C]1, 10 μM SAR127303 and 10 μg/mL 10 were used as blockers.

Row | IC50 (MAGL [1]) [nM] | Compound | other results
1 | 20 | Cc1ccc(C(F)=CC2CN(C(=O)N3CC[C@@H]4OCC(=O)N[C@@H]4C3)C2)cc1F (mixture of isomers) [Example 10, (4aR,8aS)-6-[3-[2-Fluoro-2-(3-fluoro-4-methyl-phenyl)vinyl]azetidine-1-carbonyl]-4,4a,5,7,8,8a-hexahydropyrido[4,3-b][1,4]oxazin-3-one] | –
2 | 5 | Cc1ccc(CCC2CN(C(=O)N3CC[C@@H]4OCC(=O)N[C@@H]4C3)C2)c(F)c1 [Example 3, (4aR,8aS)-6-[3-[2-(2-Fluoro-4-methyl-phenyl)ethyl]azetidine-1-carbonyl]-4,4a,5,7,8,8a-hexahydropyrido[4,3-b][1,4]oxazin-3-one] | –
3 | 6 | COc1ccc(CCC2CN(C(=O)N3CC[C@@H]4OCC(=O)N[C@@H]4C3)C2)c(C(F)(F)F)c1 [Example 4, (4aR,8aS)-6-[3-[2-[4-Methoxy-2-(trifluoromethyl)phenyl]ethyl]azetidine-1-carbonyl]-4,4a,5,7,8,8a-hexahydropyrido[4,3-b][1,4]oxazin-3-one] | –
4 | 0.1 | O=C1CO[C@H]2CCN(C(=O)N3CC4(CC(Cc5c(F)cccc5F)C4)C3)C[C@H]2N1 [Example 6, (4aR,8aS)-6-[6-[(2,6-Difluorophenyl)methyl]-2-azaspiro[3.3]heptane-2-carbonyl]-4,4a,5,7,8,8a-hexahydropyrido[4,3-b][1,4]oxazin-3-one] | –
5 | 90 | Cc1ccc(/C(F)=C/C2CN(C(=O)N3CC[C@@H]4OCC(=O)N[C@@H]4C3)C2)cc1F [Example 11, (4aR,8aS)-6-[3-[(Z)-2-Fluoro-2-(3-fluoro-4-methyl-phenyl)vinyl]azetidine-1-carbonyl]-4,4a,5,7,8,8a-hexahydropyrido[4,3-b][1,4]oxazin-3-one] | –
6 | 40 | Cc1ccc(/C(F)=C\C2CN(C(=O)N3CC[C@@H]4OCC(=O)N[C@@H]4C3)C2)cc1F [Example 12, (4aR,8aS)-6-[3-[(E)-2-Fluoro-2-(3-fluoro-4-methyl-phenyl)vinyl]azetidine-1-carbonyl]-4,4a,5,7,8,8a-hexahydropyrido[4,3-b][1,4]oxazin-3-one] | –

Second part, the compound before the results:

Row | Compound | IC50 (MAGL [1]) [nM] | other results
7 | COc1cccc(F)c1CC1CC2(C1)CN(C(=O)N1CC[C@@H]3OCC(=O)N[C@@H]3C1)C2 [Example 2, (4aR,8aS)-6-[6-[(2-Fluoro-6-methoxy-phenyl)methyl]-2-azaspiro[3.3]heptane-2-carbonyl]-4,4a,5,7,8,8a-hexahydropyrido[4,3-b][1,4]oxazin-3-one] | 0.07 | –
8 | O=C1CO[C@H]2CCN(C(=O)N3CC(c4ccc(C5CCC5)cc4)C3)C[C@H]2N1 [Example 5, (4aR,8aS)-6-[3-(4-Cyclobutylphenyl)azetidine-1-carbonyl]-4,4a,5,7,8,8a-hexahydropyrido[4,3-b][1,4]oxazin-3-one] | 1 | –
9 | COc1ccccc1CC1CC2(C1)CN(C(=O)N1CC[C@@H]3OCC(=O)N[C@@H]3C1)C2 [Example 7, (4aR,8aS)-6-[6-[(2-Methoxyphenyl)methyl]-2-azaspiro[3.3]heptane-2-carbonyl]-4,4a,5,7,8,8a-hexahydropyrido[4,3-b][1,4]oxazin-3-one] | 0.2 | –
10 | CC(C)COc1ccc(C2CN(C(=O)N3CC[C@@H]4OCC(=O)N[C@@H]4C3)C2)cc1 [Example 9, (4aR,8aS)-6-[3-(4-isobutoxyphenyl)azetidine-1-carbonyl]-4,4a,5,7,8,8a-hexahydropyrido[4,3-b][1,4]oxazin-3-one] | 1 | –
11 | COc1cccc(F)c1CC1CC2(C1)CN(C(=O)N1CC[C@@H]3OCC(=O)N[C@@H]3C1)C2 [Example [^3H]2, [^3H](4aR,8aS)-6-[6-[(2-Fluoro-6-methoxy-phenyl)methyl]-2-azaspiro[3.3]heptane-2-carbonyl]-4,4a,5,7,8,8a-hexahydropyrido[4,3-b][1,4]oxazin-3-one] | – | binding on wt tissue samples (autoradiography) (MAGL [2]): Selective binding to MAGL; binding on MAGL ko tissue sections (autoradiography; selectivity, non-specific binding) (MAGL [2]): absence of binding; in vivo binding to MAGL in brain (ex vivo autoradiography) (MAGL [3]): Selective and specific binding to MAGL
12 | Cc1ccc(CCC2CN(C(=O)N3CC[C@@H]4OCC(=O)N[C@@H]4C3)C2)c(F)c1 [Example [^3H]3, [^3H](4aR,8aS)-6-[3-[2-(2-Fluoro-4-methyl-phenyl)ethyl]azetidine-1-carbonyl]-4,4a,5,7,8,8a-hexahydropyrido[4,3-b][1,4]oxazin-3-one] | – | binding on wt tissue samples (autoradiography) (MAGL [2]): Selective binding to MAGL; binding on MAGL ko tissue sections (autoradiography; selectivity, non-specific binding) (MAGL [2]): absence of binding
13 | COc1ccc(CCC2CN(C(=O)N3CC[C@@H]4OCC(=O)N[C@@H]4C3)C2)c(C(F)(F)F)c1 [Example [^3H]4, [^3H](4aR,8aS)-6-[3-[2-[4-Methoxy-2-(trifluoromethyl)phenyl]ethyl]azetidine-1-carbonyl]-4,4a,5,7,8,8a-hexahydropyrido[4,3-b][1,4]oxazin-3-one] | – | binding on wt tissue samples (autoradiography) (MAGL [2]): Selective binding to MAGL; binding on MAGL ko tissue sections (autoradiography; selectivity, non-specific binding) (MAGL [2]): absence of binding
14 | O=C1CO[C@H]2CCN(C(=O)N3CC(c4ccc(C5CCC5)cc4)C3)C[C@H]2N1 [Example [^11C]5, [^11C](4aR,8aS)-6-[3-(4-Cyclobutylphenyl)azetidine-1-carbonyl]-4,4a,5,7,8,8a-hexahydropyrido[4,3-b][1,4]oxazin-3-one] | – | binding to MAGL on sagittal rat brain sections (autoradiography) (MAGL [4]; Wistar rat brain sections, radiotracer alone, 30 min): selectively bind to MAGL; blocking of binding by cold MAGL inhibitors (MAGL [4]; co-incubation with blockers (10 μM SAR127303 and 10 μg/mL 10 for [11C]1; 10 μM SAR127303 and 10 μM PF-06795071 for [11C]5)): binding can be blocked
